Results published in US8802597B2, “Herbicidal pyrimidines” (E I du Pont de Nemours and Company, priority 2003, dated 2014).
Like-named read-outs stand apart in the source and are kept apart here.

Legend:
Test in all cases: Test A pre/postemergence
Assay type in all cases: in vivo
[1] = tested on: giant foxtail (Setaria faberi); details: for pest or weed control at 125 g/ha / pest or weed control at 500 g/ha: Setaria faberi, 240 h, read-out: Plant response rating, Foxtail, Giant
Procedure, shortened: (§1)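 Soil: loam blended with sand. Formulation: non-phytotoxic solvent mixture with surfactant. Timing: preemergence soil spray plus concurrent postemergence spray (plants 2–10 cm, 1–2 leaves). Readout: visual injury versus untreated controls at ~10 days, 0–100.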

[2] = tested on: barnyardgrass (Echinochloa crus-galli); details: for pest or weed control at 125 g/ha / pest or weed control at 500 g/ha: Echinochloa crus-galli, 240 h, read-out: Plant response rating, Barnyardgrass
Procedure, shortened: as §1

[3] = tested on: velvetleaf (Abutilon theophrasti); details: for pest or weed control at 125 g/ha / pest or weed control at 500 g/ha: Abutilon theophrasti, 240 h, read-out: Plant response rating, Velvetleaf
Procedure, shortened: as §1

[4] = tested on: redroot pigweed (Amaranthus retroflexus); details: for pest or weed control at 125 g/ha / pest or weed control at 500 g/ha: Amaranthus retroflexus, 240 h, read-out: Plant response rating, Pigweed
Procedure, shortened: as §1

[5] = tested on: morningglory (Ipomoea spp.); details: for pest or weed control at 125 g/ha / pest or weed control at 500 g/ha: Ipomoea, 240 h, read-out: Plant response rating, Morningglory
Procedure, shortened: as §1

[6] = tested on: crabgrass (Digitaria sanguinalis); details: for pest or weed control at 125 g/ha / pest or weed control at 500 g/ha: Digitaria sanguinalis, 240 h, read-out: Plant response rating, Crabgrass
Procedure, shortened: as §1

[7] = post-emergence, Postemergence, 125 g ai/ha, 0 to 100 scale (0 no effect, 100 complete control)
[8] = post-emergence, Postemergence, 500 g ai/ha, 0 to 100 scale (0 no effect, 100 complete control)
[9] = pre-emergence, Preemergence, 125 g ai/ha, 0 to 100 scale where 0 is no effect and 100 is complete control, approximately ten days
[10] = pre-emergence, Preemergence, 500 g ai/ha, 0 to 100 scale where 0 is no effect and 100 is complete control, approximately ten days
[11] = Postemergence, 125 g ai/ha, 0 to 100 scale (0 no effect, 100 complete control)
[12] = Postemergence, 500 g ai/ha, 0 to 100 scale (0 no effect, 100 complete control)
[13] = Preemergence, 125 g ai/ha, 0 to 100 scale where 0 is no effect and 100 is complete control, approximately ten days
[14] = Preemergence, 500 g ai/ha, 0 to 100 scale where 0 is no effect and 100 is complete control, approximately ten days

CCOC(=O)c1nc(-c2ccc3ccccc3c2)nc(N)c1Cl [Compound 127]
60%: pest or weed control at 125 g/ha [3, 7]
80%: pest or weed control at 500 g/ha [3, 8]
10%: pest or weed control at 500 g/ha [4, 8]
0%: pest or weed control at 125 g/ha [1, 7] | pest or weed control at 500 g/ha [1, 8] | pest or weed control at 125 g/ha [1, 9] | pest or weed control at 500 g/ha [1, 10] | pest or weed control at 125 g/ha [2, 7] | pest or weed control at 500 g/ha [2, 8] | pest or weed control at 125 g/ha [2, 9] | pest or weed control at 500 g/ha [2, 10] | pest or weed control at 125 g/ha [3, 9] | pest or weed control at 500 g/ha [3, 10] | pest or weed control at 125 g/ha [4, 7] | pest or weed control at 125 g/ha [4, 9] | pest or weed control at 500 g/ha [4, 10] | pest or weed control at 125 g/ha [5, 7] | pest or weed control at 500 g/ha [5, 8] | pest or weed control at 125 g/ha [5, 9] | pest or weed control at 500 g/ha [5, 10] | pest or weed control at 125 g/ha [6, 7] | pest or weed control at 500 g/ha [6, 8] | pest or weed control at 125 g/ha [6, 9] | pest or weed control at 500 g/ha [6, 10]

NC(=O)c1nc(-c2ccc(Br)cc2)nc(N)c1Br [Compound 130]
30: Plant response rating, Velvetleaf [3, 12]
15: Plant response rating, Pigweed [4, 12]
0: Plant response rating, Foxtail, Giant [1, 11] | Plant response rating, Foxtail, Giant [1, 12] | Plant response rating, Foxtail, Giant [1, 13] | Plant response rating, Foxtail, Giant [1, 14] | Plant response rating, Barnyardgrass [2, 11] | Plant response rating, Barnyardgrass [2, 12] | Plant response rating, Barnyardgrass [2, 13] | Plant response rating, Barnyardgrass [2, 14] | Plant response rating, Velvetleaf [3, 11] | Plant response rating, Velvetleaf [3, 13] | Plant response rating, Velvetleaf [3, 14] | Plant response rating, Pigweed [4, 11] | Plant response rating, Pigweed [4, 13] | Plant response rating, Pigweed [4, 14] | Plant response rating, Morningglory [5, 11] | Plant response rating, Morningglory [5, 12] | Plant response rating, Morningglory [5, 13] | Plant response rating, Morningglory [5, 14] | Plant response rating, Crabgrass [6, 11] | Plant response rating, Crabgrass [6, 12] | Plant response rating, Crabgrass [6, 13] | Plant response rating, Crabgrass [6, 14]

CS(=O)(=O)NC(=O)c1nc(-c2ccc(Cl)cc2)nc(N)c1Cl [Compound 131]
70: Plant response rating, Pigweed [4, 12]
30: Plant response rating, Foxtail, Giant [1, 12] | Plant response rating, Crabgrass [6, 12]
20: Plant response rating, Barnyardgrass [2, 12] | Plant response rating, Morningglory [5, 12]
15: Plant response rating, Foxtail, Giant [1, 11]
60: Plant response rating, Velvetleaf [3, 12]
50: Plant response rating, Pigweed [4, 11]
10: Plant response rating, Barnyardgrass [2, 11] | Plant response rating, Crabgrass [6, 11]
0: Plant response rating, Foxtail, Giant [1, 13] | Plant response rating, Foxtail, Giant [1, 14] | Plant response rating, Barnyardgrass [2, 13] | Plant response rating, Barnyardgrass [2, 14] | Plant response rating, Velvetleaf [3, 13] | Plant response rating, Velvetleaf [3, 14] | Plant response rating, Pigweed [4, 13] | Plant response rating, Pigweed [4, 14] | Plant response rating, Morningglory [5, 11] | Plant response rating, Morningglory [5, 13] | Plant response rating, Morningglory [5, 14] | Plant response rating, Crabgrass [6, 13] | Plant response rating, Crabgrass [6, 14]
35: Plant response rating, Velvetleaf [3, 11]

CS(=O)(=O)NC(=O)c1nc(C2CC2)nc(N)c1Cl [Compound 132]
5: Plant response rating, Foxtail, Giant [1, 12] | Plant response rating, Velvetleaf [3, 14] | Plant response rating, Crabgrass [6, 11]
45: Plant response rating, Morningglory [5, 11]
50: Plant response rating, Velvetleaf [3, 11] | Plant response rating, Pigweed [4, 11] | Plant response rating, Morningglory [5, 12]
10: Plant response rating, Barnyardgrass [2, 12] | Plant response rating, Crabgrass [6, 12]
0: Plant response rating, Foxtail, Giant [1, 11] | Plant response rating, Foxtail, Giant [1, 13] | Plant response rating, Foxtail, Giant [1, 14] | Plant response rating, Barnyardgrass [2, 11] | Plant response rating, Barnyardgrass [2, 13] | Plant response rating, Barnyardgrass [2, 14] | Plant response rating, Velvetleaf [3, 13] | Plant response rating, Morningglory [5, 13] | Plant response rating, Morningglory [5, 14] | Plant response rating, Crabgrass [6, 13] | Plant response rating, Crabgrass [6, 14]
60: Plant response rating, Velvetleaf [3, 12]
65: Plant response rating, Pigweed [4, 12] | Plant response rating, Pigweed [4, 14]
15: Plant response rating, Pigweed [4, 13]

COC(OC)c1nc(-c2ccc(I)cc2)nc(N)c1Cl [Compound 134]
55: Plant response rating, Velvetleaf [3, 12]
0: Plant response rating, Foxtail, Giant [1, 11] | Plant response rating, Foxtail, Giant [1, 12] | Plant response rating, Foxtail, Giant [1, 13] | Plant response rating, Foxtail, Giant [1, 14] | Plant response rating, Barnyardgrass [2, 11] | Plant response rating, Barnyardgrass [2, 12] | Plant response rating, Barnyardgrass [2, 13] | Plant response rating, Barnyardgrass [2, 14] | Plant response rating, Velvetleaf [3, 13] | Plant response rating, Velvetleaf [3, 14] | Plant response rating, Pigweed [4, 13] | Plant response rating, Pigweed [4, 14] | Plant response rating, Morningglory [5, 11] | Plant response rating, Morningglory [5, 12] | Plant response rating, Morningglory [5, 13] | Plant response rating, Morningglory [5, 14] | Plant response rating, Crabgrass [6, 11] | Plant response rating, Crabgrass [6, 12] | Plant response rating, Crabgrass [6, 13] | Plant response rating, Crabgrass [6, 14]
15: Plant response rating, Pigweed [4, 11]
30: Plant response rating, Pigweed [4, 12]
50: Plant response rating, Velvetleaf [3, 11]

CCOC(=O)c1nc(-c2ccc(Cl)cc2)nc(N)c1I [Compound 137]
5: Plant response rating, Morningglory [5, 11]
25: Plant response rating, Pigweed [4, 11]
0: Plant response rating, Foxtail, Giant [1, 11] | Plant response rating, Foxtail, Giant [1, 12] | Plant response rating, Foxtail, Giant [1, 13] | Plant response rating, Foxtail, Giant [1, 14] | Plant response rating, Barnyardgrass [2, 11] | Plant response rating, Barnyardgrass [2, 12] | Plant response rating, Barnyardgrass [2, 13] | Plant response rating, Barnyardgrass [2, 14] | Plant response rating, Velvetleaf [3, 13] | Plant response rating, Velvetleaf [3, 14] | Plant response rating, Pigweed [4, 13] | Plant response rating, Pigweed [4, 14] | Plant response rating, Morningglory [5, 13] | Plant response rating, Morningglory [5, 14] | Plant response rating, Crabgrass [6, 11] | Plant response rating, Crabgrass [6, 12] | Plant response rating, Crabgrass [6, 13] | Plant response rating, Crabgrass [6, 14]
45: Plant response rating, Velvetleaf [3, 11] | Plant response rating, Pigweed [4, 12]
30: Plant response rating, Morningglory [5, 12]
60: Plant response rating, Velvetleaf [3, 12]
